Measurements as given in patent US8673951B2, “Isoxazoline-substituted benzamide compound and pesticide” (priority 2005, dated 2014).

Assays:
Format in all cases: in vivo
[1] = system: cabbage moth (Plutella xylostella); test: Insecticidal test against cabbage moth (Test Example 1); settings: foliar, 144 h, read-out: insecticidal rate (rate of dead insects)
[2] = system: common cutworm (Spodoptera litura); test: Insecticidal test against common cutworm (Test Example 2); settings: in Brassica oleracea, foliar, 144 h, read-out: insecticidal rate (rate of dead insects)
Protocol: A 10% emulsifiable concentrate (depending on the compounds, 10% wettable powder was applied for the test) of the compound of the present invention was diluted with water […] To the chemical solution was dipped leaves of cabbage for about 10 seconds, and after air-drying, they were placed in a laboratory dish, then 5-common cutworm (Spodoptera litura) in the stage of second instar larva per the dish were released therein, and the dish was covered with a lid and contained at a thermostat chamber at 25° C. […] Incidentally, the test was carried out with two districts.

[3] = system: American dog tick (Dermacentor variabilis); test: Insecticidal test against American dog tick (Test Example 20); settings: 96 h, thin film in laboratory dish, 0.1 μg/cm^2 (*), protonymph, after 4 days, read-out: insecticidal rate (rate of dead insects)
Protocol: After 400 μl of acetone solution in which 4 mg of the compound of the present invention was dissolved in 40 ml of acetone (concentration 100 ppm) was coated on the bottom face and side face of two laboratory dishes having an inner diameter of 5.3 cm, acetone was vaporized to prepare a thin film of the compound of the present invention on the inner wall of the laboratory dish. As the surface area of the inner wall is 40 cm^2, the treated dosage is […]. […] A number of dead insect(s) after 4 days was counted and a rate of dead insects was calculated by the calculation equation similar to that in Test Example 1. Incidentally, the test was carried out with one district.

[4] = system: corn earworm (Helicoverpa armigera); test: Insecticidal test against corn earworm, Comparative Example 1 (Test Example 23, Table 17); settings: cabbage leaf dip, third instar larva, after 6 days
Protocol: (§1) A 10% emulsifiable concentrate of the compound of the present invention or comparative compound was diluted with water containing a spreading agent to prepare a chemical solution with a prescribed concentration. To the chemical solution was dipped leaves of cabbage for about 10 seconds, and after air-drying, they were placed in a laboratory dish, then 7-corn earworm (Helicoverpa armigera) in the stage of third instar larva per the dish were released therein, and the dish was covered with a perforated lid and contained at a thermostat chamber at 25° C. Artificial feed (1 cm^3) was added after 2 days of treatment, and a number of dead insect(s) after 6 days was counted and a rate of dead insects was calculated by the following calculation equation. In the meantime, the test was carried out with two areas. Rate of dead insects (%)=(Number of dead insects/Number of released insects)×100 The rate of dead insects in each prescribed concentration of the compounds tested is shown in Table 17.

[5] = system: oriental tea tortix (Homona magnanima); test: Insecticidal test against oriental tea tortix, Comparative Example 2 (Test Example 24, Table 18); settings: cabbage leaf dip, third instar larva, after 6 days
Protocol: as §1, with “7-oriental tea tortix (Homona magnanima)” for “7-corn earworm (Helicoverpa armigera)”, “A” for “Artificial feed (1 cm^3) was added after 2 days of treatment, and a”, “18.” for “17.”

COC(=O)NC(=O)c1ccc(C2=NOC(c3cc(Cl)cc(Cl)c3)(C(F)(F)F)C2)cc1C (stereo not shown) [2-003, Methyl N-[4-[5-(3,5-dichlorophenyl)-5-trifluoromethyl-4,5-dihydroisoxazole-3-yl]-2-methylbenzoyl]carbamate]
pest or weed control at 100 ppm [1]: ≥ 80%
pest or weed control at 100 ppm [2]: ≥ 80%
pest or weed control at 0.1 µg/cm2 [3]: ≥ 80%

COC(=O)N(COC(C)=O)C(=O)c1ccc(C2=NOC(c3cc(Cl)cc(Cl)c3)(C(F)(F)F)C2)cc1C (stereo not shown) [3-033]
Rate of dead insects ([4]; 1 ppm): 7.1%
Rate of dead insects ([4]; 3 ppm): 50.0%
Rate of dead insects ([4]; 10 ppm): 100%
Rate of dead insects ([4]; 33 ppm): 100%

CCN(C(=O)c1ccc(C2=NOC(c3cc(Cl)cc(Cl)c3)(C(F)(F)F)C2)cc1C)c1ccccc1 (stereo not shown) [5-002, 4-[5-(3,5-Dichlorophenyl)-5-trifluoromethyl-4,5-dihydroisoxazole-3-yl]-N-ethyl-2-methyl benzoic acid anilide]
pest or weed control at 100 ppm [1]: ≥ 80%
pest or weed control at 100 ppm [2]: ≥ 80%
pest or weed control at 0.1 µg/cm2 [3]: ≥ 80%

CC(=O)N(C(=O)c1ccc(C2=NOC(c3cc(Cl)cc(Cl)c3)(C(F)(F)F)C2)cc1C)c1ncc(Cl)cn1 (stereo not shown) [5-100, N-Acetyl-N-(5-chloro-2-pyrimidinyl)-4-[5-(3,5-dichlorophenyl)-5-trifluoromethyl-4,5-dihydroisoxazole-3-yl]-2-methyl benzoic acid amide]
pest or weed control at 100 ppm [1]: ≥ 80%
pest or weed control at 100 ppm [2]: ≥ 80%
pest or weed control at 0.1 µg/cm2 [3]: ≥ 80%

COCC(=O)N(C(=O)c1ccc(C2=NOC(c3cc(Cl)cc(Cl)c3)(C(F)(F)F)C2)cc1C)c1ncc(Cl)cn1 (stereo not shown) [5-106, N-(5-Chloro-2-pyrimidinyl)-4-[5-(3,5-dichlorophenyl)-5-trifluoromethyl-4,5-dihydro-isoxazole-3-yl]-N-methoxyacetyl-2-methyl benzoic acid amide]
pest or weed control at 10 ppm [1]: ≥ 80%
pest or weed control at 10 ppm [2]: ≥ 80%
pest or weed control at 0.1 µg/cm2 [3]: ≥ 80%

Cc1cc(C2=NOC(c3cc(Cl)cc(Cl)c3)(C(F)(F)F)C2)ccc1C(=O)N(C(=O)C(C)C)c1ncc(Br)cn1 (stereo not shown) [5-122, N-(5-Bromo-2-pyrimidinyl)-4-[5-(3,5-dichlorophenyl)-5-trifluoromethyl-4,5-dihydroisoxazole-3-yl]-N-isobutyryl-2-methyl benzoic acid amide]
pest or weed control at 10 ppm [1]: ≥ 80%
pest or weed control at 10 ppm [2]: ≥ 80%
pest or weed control at 0.1 µg/cm2 [3]: ≥ 80%

CC(=O)N(C(=O)c1ccc(C2=NOC(c3cc(Cl)cc(Cl)c3)(C(F)(F)F)C2)cc1C)c1cncnc1 (stereo not shown) [5-165]
Rate of dead insects ([5]; 0.1 ppm): 14.3%
Rate of dead insects ([5]; 0.3 ppm): 57.1%
Rate of dead insects ([5]; 1 ppm): 92.9%
Rate of dead insects ([5]; 3 ppm): 100%
Rate of dead insects ([5]; 10 ppm): 100%

CO/N=C\NC(=O)c1ccc(C2=NOC(c3cc(Cl)cc(Cl)c3)(C(F)(F)F)C2)cc1C (stereo not shown) [6-004, (Z)-4-[5-(3,5-Dichlorophenyl)-5-trifluoromethyl-4,5-dihydro-isoxazole-3-yl]-N-(methoxyiminomethyl)-2-methylbenzoic acid amide]
pest or weed control at 10 ppm [1]: ≥ 80%
pest or weed control at 10 ppm [2]: ≥ 80%
pest or weed control at 0.1 µg/cm2 [3]: ≥ 80%

CCON=CNC(=O)c1ccc(C2=NOC(c3cc(Cl)cc(Cl)c3)(C(F)(F)F)C2)cc1C (stereo not shown) [6-005, 4-[5-(3,5-Dichlorophenyl)-5-trifluoromethyl-4,5-dihydroisoxazole-3-yl]-N-(ethoxyimino-methyl)-2-methyl benzoic acid amide]
pest or weed control at 10 ppm [1]: ≥ 80%
pest or weed control at 10 ppm [2]: ≥ 80%
pest or weed control at 0.1 µg/cm2 [3]: ≥ 80%

CON=CN(C)C(=O)c1ccc(C2=NOC(c3cc(Cl)cc(Cl)c3)(C(F)(F)F)C2)cc1C (stereo not shown) [7-003, 4-[5-(3,5-Dichlorophenyl)-5-trifluoromethyl-4,5-dihydroisoxazole-3-yl]-N-(methoxyiminomethyl)-N-methyl-2-methylbenzoic acid amide]
pest or weed control at 0.1 µg/cm2 [3]: ≥ 80%

COC(=O)N(CC(F)(F)F)C(=O)c1ccc(C2=NOC(C(F)(F)F)C2c2cc(Cl)cc(Cl)c2)cc1C (stereo not shown) [Comparative Compound A, reference compound]
Rate of dead insects ([4]; 1 ppm): 0%
Rate of dead insects ([4]; 3 ppm): 0%
Rate of dead insects ([4]; 10 ppm): 28.6%
Rate of dead insects ([4]; 33 ppm): 92.9%

Cc1cc(C2=NOC(C(F)(F)F)C2c2cc(Cl)cc(Cl)c2)ccc1C(=O)Nc1ncccn1 (stereo not shown) [Comparative Compound B, reference compound]
Rate of dead insects ([5]; 0.1 ppm): 0%
Rate of dead insects ([5]; 0.3 ppm): 0%
Rate of dead insects ([5]; 1 ppm): 7.1%
Rate of dead insects ([5]; 3 ppm): 64.3%
Rate of dead insects ([5]; 10 ppm): 100%
